Test results: patent publication US5594024A, “Centrally actig substituted phenylazacycloalkanes” (priority 1995, dated 1997)
“Also recorded” adds a separate entry of the source.

Assays:
non-pretreated rats = assay: Locomotor activity and gross behavior in non-habituated (non-pretreated) rats; conditions: for Gross Behavioral Observations: non-pretreated rats
Excerpt: Immediately after drug administration, the rats were placed in the test cages (one rat/cage) and put into the motility meters. […] Observations of gross behavior were made throughout the activity sessions through semi-transparent mirrors.
(§3) Animals used in the biochemical and motor activity experiments were male rats of the Sprague-Dawley strain (ALAB, Sollentuna, Sweden), weighing 200-300 g. The rats were kept 5 per cage with free access to water and food (except for the starved animals for the experiments with per oral administration, who were only allowed water the last 18 hours before testing), at least one week from arrival until used in the experiments.
(§4) All substances to be tested were dissolved in saline immediately before use, occasionally with the addition of a few drops of glacial acetic acid and/or moderate heating in order to obtain complete dissolution. Injection volumes were 5 mL/kg.
Analysis of variance (ANOVA) followed by Fischer's test was used for the statistical calculations.
In vivo behavioral data was obtained with rats injected with drug and 5 minutes later put into the motility chambers for the first time. The motor activity was measured for the subsequent 30 minutes (accumulated counts/30 minutes) and expressed as % of saline treated controls.

DA receptor [1] = assay: DA metabolism (DOPAC, HVA levels) in habituated rats; type: in vivo, rat (male Sprague-Dawley); conditions: Rattus norvegicus, 1 h, read-out: DOPAC limbic
How it was run: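 Rats habituated to motility meters 60 min, no NSD given; killed one hour after drug administration (injection volume 5 mL/kg). Striatal and limbic DOPAC, HVA and 5-HIAA measured by HPLC-EC, expressed as % of controls (means ±SEM).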

5-HT1A = target: T1, 5-HT1A (Rattus norvegicus, UniProt P19327); assay: 5-HT1A radioligand binding ([3H]-8-OH-DPAT); parameters: species or system rat (male Sprague-Dawley)
T1 construct: the whole brain with the exception of the brainstem and cerebellum was rapidly removed; from tissue
T1 sequence (P19327 1-422): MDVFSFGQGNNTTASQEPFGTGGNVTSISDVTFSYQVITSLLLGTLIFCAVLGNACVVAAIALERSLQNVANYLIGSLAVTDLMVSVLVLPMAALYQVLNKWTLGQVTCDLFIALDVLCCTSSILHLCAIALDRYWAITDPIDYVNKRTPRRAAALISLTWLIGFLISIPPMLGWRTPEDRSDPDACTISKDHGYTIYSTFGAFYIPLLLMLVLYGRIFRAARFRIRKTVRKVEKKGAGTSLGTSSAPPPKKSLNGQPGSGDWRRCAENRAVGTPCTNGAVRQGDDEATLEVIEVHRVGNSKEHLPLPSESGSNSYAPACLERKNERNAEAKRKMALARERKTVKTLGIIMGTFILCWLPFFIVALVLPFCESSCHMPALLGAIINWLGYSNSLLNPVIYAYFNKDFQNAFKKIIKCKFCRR
How it was run: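 Rat forebrain membranes (whole brain minus brainstem and cerebellum) in 50 mM Tris pH 8.0 with NaCl, CaCl2, MgCl2 and 10 μM pargyline; 1 nM [3H]-8-OH-DPAT, 15 min at 37° C., filtration. Nonspecific binding defined with 10 μM 5-HT; IC50 by semi-log plot and linear regression.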

habituated rats = assay: Locomotor activity and behavior in habituated rats; type: in vivo, rat (male Sprague-Dawley); conditions: 60 min
Experimental: (§1) Footnotes Table 3. The rats were habituated to the motility meters 60 min
prior to the activity session.
(§2) Injection volumes were 5 mL/kg.
Locomotor activity was measured in rats which were habituated 60 minutes to the activity meters before drug injection. The activity was measured for the subsequent 60 minutes and expressed as % of controls (means ±SEM, n=4).

[2] = tested on: central dopamine receptors; assay: Locomotor activity and DA synthesis in reserpinized rats; type: in vivo, rat; conditions: reserpinized rats
5-HT receptor [3] = assay: 5-HT metabolism (5-HIAA levels) in habituated rats; type: in vivo, rat (male Sprague-Dawley); conditions: Table 3
Experimental: as §1
SEM. The rats were immediately killed after the activity session, striata
and limbic levels of DOPAC and 5HIAA were measured by means of HPLCEC. *p
In the experiments with habituated rats no NSD was administered and the animals were killed one hour after drug administration. […] The levels were expressed as % of controls (DOPAC and 5-HIAA see Table 3). The in vivo brain microdialysis experiments were performed in conscious rats as described by Waters et al., Eur. J. Pharm., 187, 425-34 (1990).
Injection volumes were 5 mL/kg. […]

5-HT receptor [4] = assay: 5-HTP accumulation (5-HT synthesis rate) in non-pretreated rats after NSD 1015; type: in vivo, rat (male Sprague-Dawley)
Experimental: observations are commented to the right. After the session the rats were
accumulation in the NErich cortical regions and 5HTP in the limbic
as §2

DA receptor [5] = assay: DOPA accumulation (DA synthesis rate) in non-pretreated rats after NSD 1015; conditions: for duration of the increase in brain DOPA accumulation: 50 μmol/kg
Experimental: injected with NSD 1015 (100 mg/kg, i.p.) and then killed 30 min later.
In-vivo determination of rat brain monoamine metabolites and tyrosine and tryptophan hydroxylation (biochemically monitored DA and 5-HT receptor agonist or antagonist activity).
The compounds under evaluation were tested biochemically for central DA and 5-HT receptor (pre- and/or postsynaptic) stimulating and/or blocking activity. The concept of this biochemical screening method is that a DA or 5-HT receptor agonist will stimulate the receptor and through regulatory negative feed-back systems induce a decline in tyrosine or tryptophan hydroxylating activity, respectively, and a subsequent reduction in the synthesis rate of DA and 5-HT in the presynaptic neuron. […] The biochemical experiments and the determinations of Dopa and 5-HTP by means of HPLC with electrochemical detection were performed. The antagonistic effects were seen as increases in the synthesis rate (n=4), as a result of the positive feed-back upregulation of synthesis. The effects on Dopa and 5-HTP accumulation are expressed as % of controls, which were: DOPA limbic system=447±23 ng/g and DOPA striatum=1045±47ng/g, 5-HTP limbic region 241±2 ng/g (Table 2).
as §3, §4
Analysis of variance (ANOVA) followed by Fischer's test was used for the statistical calculations. P values less than 0.05 were regarded statistically significant.
DOPA accumulation (DA synthesis rate) in non-pretreated rats (Table 2). After the locomotor activity session (see Table 2, above) the rats were injected with the decarboxylase inhibitor NSD 1015 (100 mg/kg, sc) and killed 30 minutes later. The DOPA accumulation in the DA -rich limbic and striatal and the NE-rich cortical (mainly hemispheres) brain areas were expressed as % of saline treated controls.
DOPA accumulation, time course after s.c. and p.o. administration (Table 2). […] NSD 1015 (100 mg/kg, sc) was injected 30 minutes before death. The data are expressed as % of saline treated controls.

[6] = tested on: d-amphetamine-induced hyperactivity; assay: d-Amphetamine-induced hyperactivity in habituated rats; type: in vivo, rat

## CCCN1CCC[C@@H](c2cccc(C#N)c2)C1 [S-(-)-34, S-(-)-3-(3-Cyanophenyl-N-n-propyl)piperidine]
non-pretreated rats; 25-200 μmol/kg, sc, dose-dependent monophasic, non-habituated rats
  increase in motor activity, maximal effect: +60%
non-pretreated rats; 50 sc
  Gross Behavioral Observations: Activation
non-pretreated rats; 100 sc
  Gross Behavioral Observations: Activation
non-pretreated rats; 200 sc
  Gross Behavioral Observations: No change
DA receptor [1]; po
  response vs control in vivo at 25 µmol/kg: 138 ± 13%
DA receptor [1]; sc
  response vs control in vivo at 100 µmol/kg: 226 ± 11%
5-HT1A
  affinity for the 5-HT1A receptors in vitro (in words): very low affinity for the 5-HT1A receptors
5-HT1A; [3H]-8-OH-DPAT, rat cortex, read-out: in vitro binding IC50, 5HT1A
  IC50: 75 µM
Habituated rats; % of controls
  locomotor stimulation in habituated rats: +600%
Habituated rats; Rattus norvegicus, 1 h, 25 μmol/kg po, habituated rats, read-out: Motor Activity
  response vs control in vivo at 25 µmol/kg: 231 ± 31%
[2]
  DA synthesis rate / DOPA accumulation in reserpinized rats (in words): failed to affect the DOPA accumulation in reserpinized
5-HT receptor [3]
  brain 5-HIAA levels (in words): no statistical significant effects; also recorded: No effects on the brain levels of 5-HIAA; also recorded: failed to affect brain levels of 5-HIAA
5-HT receptor [4]; 25 μmol/kg, sc and above
  brain 5-HTP formation, elevation: 45-50%
5-HT receptor [4]; 50 sc
  5-HTP acc Limbic Region: 144 ± 6 % of saline controls
5-HT receptor [4]; 100 sc
  5-HTP acc Limbic Region: 148 ± 10 % of saline controls
5-HT receptor [4]; 200 sc
  5-HTP acc Limbic Region: 80 ± 12 % of saline controls
5-HT receptor [4]; non-pretreated rats
  brain 5-HTP levels (in words): elevated brain 5-HTP levels
DA receptor [5]; po
  duration of the increase in brain DOPA accumulation: 1.5 to 2.5 h
DA receptor [5]; s.c.
  duration of the increase in brain DOPA accumulation: 2.5 to 4.5 h
  cortical DOPA formation (in words): slightly, but statistically significantly increased; also recorded: slight increase in cortical DOPA accumulation
DA receptor [5]; 3.1-200 μmol/kg, s.c.
  DOPA accumulation in limbic and striatal brain regions (in words): elevated in the limbic (limb.) and striatal (stri) brain regions with a maximal response equal to that observed for classical neuroleptics such as haloperidol
DA receptor [5]; 50 sc
  DOPA acc Cortex: 155 ± 9 % of saline controls
  DOPA acc Stratium: 285 ± 3 % of saline controls
DA receptor [5]; 100 sc
  DOPA acc Cortex: 158 ± 8 % of saline controls
  DOPA acc Stratium: 268 ± 16 % of saline controls
DA receptor [5]; 200 sc
  DOPA acc Cortex: 148 ± 16 % of saline controls
  DOPA acc Stratium: 294 ± 26 % of saline controls
DA receptor [5]; from DOPA accumulation in the striatum after sc and po administration
  estimated availability: 50%
[6]; 64 mg/kg, sc, d-amphetamine 5.0 mg/kg
  effect on d-amphetamine-induced hyperactivity: failed to block the hyperactivity
[6]; d-amphetamine 0.5 mg/kg, sc
  effect combined with lower dose of d-amphetamine: additive stimulatory effect
[6]; even at high doses
  block of d-amphetamine-induced hyperactivity (in words): failed to block d-amphetamine-induced hyperactivity even at high doses
[6]; test compound 14 mg/kg, sc, d-amphetamine 5 mg/kg
  effect on activation induced by high dose d-amphetamine: failed to affect the strong activation
